One data set concerns HL-60 cells. As to the kind of experiment: Induction of HL-60 Cell Differentiation (NBT reduction). Format: cell-based. Particulars: 3 days, relative to maximal differentiation with 100-1000 nM calcitriol, mean of 3 wells, 4320 min, read-out: ED50, concentration leading to 50% of maximal differentiation. The method, then: Induction of HL-60 Cell Differentiation
The induction of differentiation of HL-60 cells was assayed by measuring their oxidative burst potential via the reduction of nitrobluetetrazolium (NBT).
HL-60 cells (30,000 cells in 90 μl of supplemented RPMI medium) were seeded into flat-bottomed microliter wells. Immediately after seeding, 10 μl of test compounds listed below in Table II diluted in supplemented RPMI medium were added to the wells to yield final concentrations of between 10^-11 and 10^-6 M (starting from stock solutions of 10^-2 M in ethanol, stored at -20° C. and protected from light). After 3 days, medium was removed from the wells with a multichannel pipette and replaced with 100 μl of NBT solution (1 mg/ml in phosphate buffered saline with 200 nM phorbol myristate acetate). Following an additional hour incubation at 37° C. the NBT solution was removed and 100 μl of 10% sodium dodecyl sulfate in 0.01N HCl was added. The amount of the reduced NBT was quantified photometrically at 540 nm using an automated plate reader. The mean of 3 wells was calculated. […] Values were expressed as percent of maximal differentiation achieved with 100-1000 nM calcitriol in the same experiment.

Data set [1] relates to γ-Interferon Release in Human T-cells. As to the kind of experiment: Inhibition of γ-Interferon Release in Human T-cells (ELISA). Format: cell-based. The following applies: PHA-stimulated human lymphocytes, IFN-γ by ELISA, days 3 and 4, read-out: IC50, concentration leading to 50% of control values (IFN-γ). The method, then:
Inhibition of γ-Interferon Release in Human T-cells
Mononuclear cells were isolated from venous blood of healthy donors by centrifugation of buffy coat leucocytes atop Ficoll-Paque. […] 100 μl of this cell suspension were seeded into flat-bottom microtiter wells and stimulated with 1 μg/ml of the T-cell specific mitogen phytohemagglutinine (PHA). Immediately after seeding, the test compounds listed below in Table IV were added to yield final concentrations of between 1×10^-11 M-1×10^-6 M. All tests were run in the quadruplicates.
On days 3 and 4, medium was removed from the wells and the content of IFN-γ was analyzed by ELISA. Values are expressed as percent of controls (samples without test compound).
A general note: An ELISA detects its analyte on a solid surface through an enzyme-linked reagent.

A further data set deals with Human T-cell. As to the kind of experiment: Inhibition of Human T-cell Proliferation (3H-thymidine). Particulars: PHA-stimulated human lymphocytes, 3H-thimidine after 3 and 4 days, read-out: IC50, concentration leading to 50% of control values (T-cell proliferation). The format is cell-based. The method, then: Inhibition of Human T-cell Proliferation
Mononuclear cells were isolated from venous blood of healthy donors by centrifugation of buffy coat leucocytes atop Ficoll-Paque. […] of this cell suspension were seeded into flat-bottom microtiter wells and stimulated with […] of PHA. Immediately after seeding, the test compounds listed below in Table V were added to yield final concentrations of between 1×10^-11 M-1×10^-6 M. All tests were run in the quadruplicates.
After 3 and 4 days, ^3 H-thymidine (5 Ci/mmol) was added to wells at a concentration of […]. Cells were pulse-labeled for the last 6 hours of the growth period. Cells were then harvested on to a 96 well filter plate using a cell harvester. After drying at 40° C. under vacuum for 20-30 minutes, 20 μl of scintillor were added and the radioactivity bound to the filters was counted. Values are expressed as percent controls (samples without test compounds).

The nature of data set [2]: Calcium tolerance test in mice. The format is in vivo. Particulars: daily subcutaneous, 4 consecutive days, dose giving zero weight gain during 5 day treatment period. The source says:
Calcium tolerance test in mice
Profound changes in calcium homeostasis strongly affect the weight development of mice.
Mice (25-30 g body weight) received daily subcutaneous administrations of the compound for 4 consecutive days. Body weight was registered just before and at the end of a […] treatment period. The "highest tolerated dose" (HTD) is the dose which results in zero weight gain during this treatment period.

The subject of another data set is Sebaceous cells. As to the kind of experiment: Inhibition of Sebaceous Cell Proliferation. The format is cell-based, human. Particulars: read-out: ED50, amount of compound necessary to inhibit the proliferation of the sebaceous cells by 50%. The method, then: Inhibition of Sebaceous Cell Proliferation
Sebaceous cells were isolated from adult human sebaceous glands, derived from facial skin removed during cosmetic surgery. This method is described in an article by Doran et al. in J. Invest. Dermatol. 96:341-348 (1991).
The cells were cultured in Iscove's medium containing 10% fetal calf-serum and 4 μg/ml dexamethasone on a layer of growth-arrested 3T3 mouse fibroblasts.
Cells were plated in medium without the test compound and then given the compound in fresh medium 24-48 hours after the initial plating. The cultures were given fresh medium, containing the test compound, every 48 hours. On the day of harvesting, the cultures were rinsed with 0.03% ethylenediamine tetraacetic acid (EDTA) in phosphate buffered saline (PBS), to remove only the 3T3 fibroblasts. The remaining sebocyte colonies were incubated in 0.05% trypsin/0/03% EDTA to create a single cell suspension of sebocytes. The cells were suspended, mixed vigorously to prepare a single cell suspension, and counted in a hemocytometer.
All compounds were handled in the following manner. Stock solutions were made up as 10-^2 M solutions in degassed 100% ethanol and stored at -20° C. in the dark. Solutions were never used after storage of more than a month. During experimental use the solutions, which had been aliquoted, were thawed once and used by diluting directly into complete medium to the appropriate concentration.
The results are summarized in Table III below as the amount of compound necessary to inhibit the proliferation of the sebaceous cells by 50% (ED50) in μM as compared to a control, vehicle treated only, culture.

The subject of another data set is HaCaT cell line. As to the kind of experiment: Inhibition of Keratinocyte Proliferation (3H-thymidine uptake, HaCaT cells). Format: cell-based. The following applies: Homo sapiens, 3H-thymidine incorporation, 6 days, read-out: IC50, concentration leading to 50% of control values.

Read-outs that look alike come from different tables or passages of the source.

Regarding `C=C1/C(=C\C=C2/CCC[C@]3(C)C([C@H](C)C=C=CC(C)(C)O)=CC[C@@H]23)C[C@@H](O)C[C@@H]1O` [1,25-Dihydroxy-16,22S,23-triene-cholecalciferol] [listing 1 of 2 here], the EC50 with HL-60 cells is 4.8 nM. In addition, the IC50 is 3 nM in data set [1]; 6 nM in the data set on Human T-cell; 10 nM in the data set on Sebaceous cells (adult human facial sebaceous cells, vs vehicle treated control, listed as 1α,25-Dihydroxy-16,22S,23-triene-cholecalciferol). In addition, in data set [2], the “HTD, highest tolerated dose” value amounted to 50.0 µg/kg.

In the case of `C=C1/C(=C\C=C2/CCC[C@]3(C)[C@@H]([C@H](C)CCCC(C)(C)O)CC[C@@H]23)C[C@@H](O)C[C@@H]1O` [1,25-Dihydroxy-cholecalciferol, reference compound], the IC50 with HaCaT cell line is 55 nM; in data set [1] (T-cell) it was 0.8 nM; in the data set with Human T-cell (T-cell), 10 nM; with Sebaceous cells (Homo sapiens) it was 50 nM.

Regarding `C=C1/C(=C\C=C2/CCC[C@]3(C)C([C@H](C)C=C=CC(C)(C)O)=CC[C@@H]23)C[C@@H](O)C[C@@H]1O` [1,25-Dihydroxy-16,22S,23-triene-cholecalciferol] [listing 2 of 2 here], in the data set with HaCaT cell line, the IC50 came to 40 nM.

For the compound `C=C1/C(=C\C=C2/CCC[C@]3(C)C([C@H](C)C=C=CC(C)(C)O)=CC[C@@H]23)C[C@@H](O)C[C@@H]1O` [1,25-Dihydroxy-16,22R,23-triene-cholecalciferol], the EC50 in the data set with HL-60 cells was 0.22 nM. For the same compound, the IC50 was 0.05 nM in data set [1]; 0.55 nM with Human T-cell; 1 nM with Sebaceous cells (adult human facial sebaceous cells, vs vehicle treated control, listed as 1α,25-Dihydroxy-16,22R,23-triene-cholecalciferol). Further, in data set [2], the “HTD, highest tolerated dose” value was found to be 2.5 µg/kg.

For the origin of these results see patent US5840718A, “22-epimeric-1,25-dihydroxy-16,22,23-triene-cholecalciferol” (Hoffmann-La Roche Inc., priority 1997, dated 1998).
